Data on one molecule can be found in US7888357B2, “Anti-inflammatory and protein kinase inhibitor compositions and related methods for downregulation of detrimental cellular responses and inhibition of cell death” (Northwestern University, priority 2001, dated 2011).

In general, IC50 refers to the concentration at which inhibition is half-maximal. Higher therefore signals a need for much substance.

SMILES strings stand for the structures.

The target in one series is T1, protein kinase A (PKA) (Bos taurus, UniProt P00517).
T1 construct: bovine heart PKA from Promega; purchased Promega; host or cells: bovine heart
The experiment in a line: Reconstituted enzyme assay, PKA. Particulars: γ-[32P]-ATP, synthetic peptide substrate. It counts as biochemical, bovine. The protocol: [table] […] The rationale for using BV-2 cells in high throughput screening was the paucity of well-characterized human microglial cell lines, and the relevant activation responses and signaling pathways reflect those seen in human and rodent primary microglial cultures. Compounds were tested for their effects on NO accumulation in conditioned media of LPS-stimulated BV-2 cells by measurement of nitrite production by the Griess assay as a read-out for iNOS activity, as described previously. Stock solutions of compounds were prepared in dimethylsulfoxide (DMSO) or in water. When stock solutions were prepared in DMSO, control wells contained the same final concentration of DMSO as the compound-containing wells. […] Solutions of compounds for cell treatments were diluted to a 10× final concentration by dilution of stock solutions in αMEM media. […] Reconstituted enzyme assays were done as described s. The sources of protein kinases were: bovine heart PKA from Promega, rat brain PKC from Calbiochem, rat CaMKII from New England Biolabs, chicken gizzard MLCK prepared as described, and a p38 MAP kinase kit containing recombinant Xenopus p38-MAPK and its human substrate from Upstate Biotechnology. […]

A further series has as its system rat astrocytes. As to the kind of experiment: Western blot of glial activation responses in rat astrocyte cultures. It is filed as cell-based. To be noted: for GFAP levels: activated rat astrocytes. As for the experimental part:
FIG. 2. Selective effects of compound 1 (MW01-070C) on glial activation responses and gene-regulating protein kinase pathways. BV-2 cells and rat astrocytes were treated with control buffer (C) or stimulated with LPS or Aβ1-42 peptide in the presence or absence of compound 1, and cell lysates were analyzed by Western blots. (A) Astrocytes treated with LPS and compound 1 show concentration-dependent inhibition of iNOS and IL-1β production but not GFAP. (B) Astrocytes treated with A β1-42 and compound 1 (10 μM) show inhibition of iNOS and IL-1β but not apoE and COX-2. (C) BV-2 cells treated with LPS and compound 1 (10 μM) show inhibition of phosphorylated (p-) CREB but not p-p38 and p-ATF2, as assayed with antibodies that are specific for the phosphorylated forms of the proteins. Data are expressed as percent control (mean±SD; n=3 determinations).
The rationale for using BV-2 cells in high throughput screening was the paucity of well-characterized human microglial cell lines, and the relevant activation responses and signaling pathways reflect those seen in human and rodent primary microglial cultures. Compounds were tested for their effects on NO accumulation in conditioned media of LPS-stimulated BV-2 cells by measurement of nitrite production by the Griess assay as a read-out for iNOS activity, as described previously. Stock solutions of compounds were prepared in dimethylsulfoxide (DMSO) or in water. When stock solutions were prepared in DMSO, control wells contained the same final concentration of DMSO as the compound-containing wells. […] Solutions of compounds for cell treatments were diluted to a 10× final concentration by dilution of stock solutions in αMEM media. The commercially available drugs tested were: compound 5 (KN93 from Alexis); compound 6 (pyrrolidinedithiocarbamate or PDTC from Sigma), compound 7 (SB203580 from Alexis Corporation), compound 8 (PD98059 from Alexis Corporation), and compound 9 (UO126 from Cell Signaling). SB203580, U0126 and PD98059, PDTC, and KN93 are used as pathway-selective inhibitors of p38 MAPK, MEK1/2, NFκB, and CaMKII signaling pathways. Respectively, Western blots of cell lysates were done with the following antibodies: monoclonal anti-iNOS (1:1000 dilution, Transduction Labs); polyclonal anti-rat IL-1β (1:1000 dilution, R&D Systems, Inc.); monoclonal anti-glial fibrillary acidic protein (GFAP) (1:[…] dilution, Sigma); polyclonal anti-rat alioE (1:15,000 dilution) prepared as described; polyclonal anti-COX-2 (1:500 dilution) and monoclonal anti-phosphoATF2 (1:1000 dilution) from Santa Cruz Biotechnology, polyclonal anti-phosphoCREB (1:1000 dilution), and polyclonal anti-phosphop38 MAPK (1:1000 dilution). Reconstituted enzyme assays were done as described s. The sources of protein kinases were: bovine heart PKA from Promega, rat brain PKC from Calbiochem, rat CaMKII from New England Biolabs, chicken gizzard MLCK prepared as described, and a p38 MAP kinase kit containing recombinant Xenopus p38-MAPK and its human substrate from Upstate Biotechnology. The catalytic domains of these protein kinases retain a high level of amino acid sequence identity across mammalian species, consistent with the lack of documented major differences across species for the in vitro catalytic activity of a given kinase.
FIG. 5. Effects of two compounds on LPS-stimulated INOS and IL-1β production in rat astrocyte cultures. Astrocyte cultures were incubated for 24 hr with control buffer (C), LPS (100 ng/ml) alone, or LPS in the presence of increasing concentrations (0.1, 0.3, 1, 3, 10 μM) of MW01-070C (panel A) or MW01-196A (panel B). The levels of iNOS, proIL-1β, and GFAP were determined by Western blot of cell lysates.
FIG. 6. Effects of MW01-070C on astrocytes treated with various activating stimuli, and analysis of multiple activation responses. Astrocyte cultures were stimulated for 12 hr with Aβ (10 μM), S100B (0.5 μM), or LPS (100 ng/ml) in the absence (−) or presence (+) of MW01-070C (10 μM). […]
Background: A western blot detects proteins with antibodies after separation by electrophoresis.

Another series relates to rats. As to the kind of experiment: Organ histology after high dose injections. It counts as in vivo, rat. To be noted: after high dose injections into rats (data not shown).
[1] abbreviates: LPS-stimulated rat astrocytes, 24 hr, Western blot.
[2] abbreviates: LPS-stimulated rat astrocytes, 24 hr, Western blot, listed as 1.
[3] abbreviates: activated astrocytes, compound 10 μM.
Where [4] appears, read: astrocytes stimulated by S100 (0.5 μM), 12 hr, compound 10 μM.
Setting [5] is: glia stimulated by Aβ1-42, compound 10 μM.

Consider `N=c1cc2c(nn1CCCCCCCCCCC(=O)N1CCN(c3ncccn3)CC1)-c1ccccc1CC2` [MW01-070C], for which, on protein kinase A (PKA), the concentration for half-maximal inhibition (IC50) was more than 100 µM. The IL-1β production entry in the series on rat astrocytes (setting [1]) is recorded as “dose dependent inhibition”; with rat astrocytes (setting [2]), “inhibits”; in the series on rat astrocytes (setting [4]), “inhibits”; with rat astrocytes (setting [5]), “inhibits”. In addition, the iNOS production entry is given as “dose dependent inhibition” in the series on rat astrocytes (setting [1]), “inhibits” with rat astrocytes (setting [2]), “inhibits” in the series on rat astrocytes (setting [4]) and “inhibits” in the series with rat astrocytes (setting [5]). Further, the COX-2 levels result in the series with rat astrocytes (setting [3]) is on record as “no effect”. For the same molecule, the apoE production result with rat astrocytes (setting [3]) is “no effect”. Moreover, the GFAP levels result was “no change” in the series with rat astrocytes (Western blot) and “not changed” in the series on rat astrocytes (Western blot, listed as 1). The “liver, kidney or brain damage based on histology” value in the series with rats is “no major liver, kidney or brain damage”.
